According to PMC8149447, “Caerulomycin and collismycin antibiotics share a trans-acting flavoprotein-dependent assembly line for 2,2’-bipyridine formation” (Nature Communications, 2021):
Each block holds one molecule with its values, some of them ahead of it.

Legend:
CaeB1 [1] = target: T1, CaeB1 (Actinoalloteichus caeruleus, UniProt M1F383, S168A); assay: absorbance spectrum; activity rescue by added FAD; format: biochemical; conditions: noncovalent; excess FAD added in the product assay
T1 construct: full length, N-terminal 6xHis (or MBP-6xHis) tag, expressed in E. coli; noncovalent FAD

CaeB1 [2] = target: T2, CaeB1 (Actinoalloteichus caeruleus, UniProt M1F383, E372L); assay: absorbance spectrum of purified protein; format: binding; conditions: noncovalent; co-purified, oxidized form
T2 construct: full length, N-terminal 6xHis (or MBP-6xHis) tag, expressed in E. coli; noncovalent FAD

ColB1 = target: T3, ColB1 (Streptomyces filamentosus, UniProt A0ABY4UQ20); assay: heat denaturation and HPLC-DAD / ESI-HR-MS; format: binding; conditions: noncovalent; co-purified
T3 construct: gene K7395_06050; full length, N-terminal 6xHis (or MBP-6xHis) tag; noncovalent FAD
T3 sequence (A0ABY4UQ20 1-394): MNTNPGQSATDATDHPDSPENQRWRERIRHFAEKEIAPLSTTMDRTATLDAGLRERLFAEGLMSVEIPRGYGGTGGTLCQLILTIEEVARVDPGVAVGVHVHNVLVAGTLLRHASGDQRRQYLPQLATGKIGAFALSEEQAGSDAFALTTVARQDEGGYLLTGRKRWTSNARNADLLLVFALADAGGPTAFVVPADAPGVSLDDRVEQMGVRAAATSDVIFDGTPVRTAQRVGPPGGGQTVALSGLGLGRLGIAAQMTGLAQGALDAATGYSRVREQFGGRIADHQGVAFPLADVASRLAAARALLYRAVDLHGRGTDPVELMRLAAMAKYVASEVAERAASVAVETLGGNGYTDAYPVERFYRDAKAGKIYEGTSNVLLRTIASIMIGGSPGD

CaeB1 [3] = target: T4, CaeB1 (Actinoalloteichus caeruleus, UniProt M1F383); assay: absorbance spectrum; heat denaturation and HPLC-HR-MS; format: binding; conditions: noncovalent; co-purified, oxidized form
T4 construct: full length, N-terminal 6xHis (or MBP-6xHis) tag, expressed in E. coli; noncovalent FAD
T4 sequence (M1F383 1-386): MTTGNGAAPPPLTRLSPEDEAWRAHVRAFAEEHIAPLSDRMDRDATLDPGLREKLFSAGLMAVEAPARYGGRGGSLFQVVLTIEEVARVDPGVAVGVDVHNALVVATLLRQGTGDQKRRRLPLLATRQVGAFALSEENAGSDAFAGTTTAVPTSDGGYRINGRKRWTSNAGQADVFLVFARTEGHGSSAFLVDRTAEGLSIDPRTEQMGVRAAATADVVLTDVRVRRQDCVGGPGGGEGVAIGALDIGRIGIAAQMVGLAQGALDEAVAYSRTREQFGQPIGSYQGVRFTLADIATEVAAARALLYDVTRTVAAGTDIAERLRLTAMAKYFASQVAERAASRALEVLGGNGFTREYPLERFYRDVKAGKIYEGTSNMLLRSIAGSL

ColA3 = target: T5, ColA3 (Streptomyces filamentosus, UniProt A0ABY4UPY4); assay: HPLC / MS of product […] (as IAA derivative […]) or […]; format: biochemical; conditions: reconstituted with CaeA1, CaeA2, CaeB1; picolinic acid, malonyl-CoA, L-cysteine, ATP, Mg, pH 7.5, 30 C
T5 construct: gene K7395_06055; full length C-A-PCP module, N-terminal 6xHis (or MBP-6xHis) tag

[4] = target: N-terminally thioredoxin (Trx)-tagged Ct domain of the CaeA2 NRPS module (A. cyanogriseus (CAE-producing strain)); assay: ITC; MicroCal-ITC200, 25°C; 60 μM CaeA2 construct in the cell, 400 μM flavoprotein in the syringe; 50 mM Tris-HCl pH 7.5, 100 mM NaCl, 0.1 mM TCEP, 5% glycerol; single binding site model
MBP-fused CaeB1 variant = target: T6, MBP-fused CaeB1 variant (A. cyanogriseus (CAE-producing strain), UniProt M1F383 1-386); assay: as above; conditions: both partners purified
T6 construct: CaeB1, flavin (FAD)-dependent protein of the caerulomycin (cae) biosynthetic gene cluster; also called trans-acting flavoprotein; not shown: MBP, N-terminal, kept
T6 sequence (looked up): T4 sequence (M1F383 1-386)

[5] = target: Ct-PCP didomain of the CaeA2 NRPS module (A. cyanogriseus (CAE-producing strain)); assay: as above

T5 sequence (A0ABY4UPY4 entry or part of it): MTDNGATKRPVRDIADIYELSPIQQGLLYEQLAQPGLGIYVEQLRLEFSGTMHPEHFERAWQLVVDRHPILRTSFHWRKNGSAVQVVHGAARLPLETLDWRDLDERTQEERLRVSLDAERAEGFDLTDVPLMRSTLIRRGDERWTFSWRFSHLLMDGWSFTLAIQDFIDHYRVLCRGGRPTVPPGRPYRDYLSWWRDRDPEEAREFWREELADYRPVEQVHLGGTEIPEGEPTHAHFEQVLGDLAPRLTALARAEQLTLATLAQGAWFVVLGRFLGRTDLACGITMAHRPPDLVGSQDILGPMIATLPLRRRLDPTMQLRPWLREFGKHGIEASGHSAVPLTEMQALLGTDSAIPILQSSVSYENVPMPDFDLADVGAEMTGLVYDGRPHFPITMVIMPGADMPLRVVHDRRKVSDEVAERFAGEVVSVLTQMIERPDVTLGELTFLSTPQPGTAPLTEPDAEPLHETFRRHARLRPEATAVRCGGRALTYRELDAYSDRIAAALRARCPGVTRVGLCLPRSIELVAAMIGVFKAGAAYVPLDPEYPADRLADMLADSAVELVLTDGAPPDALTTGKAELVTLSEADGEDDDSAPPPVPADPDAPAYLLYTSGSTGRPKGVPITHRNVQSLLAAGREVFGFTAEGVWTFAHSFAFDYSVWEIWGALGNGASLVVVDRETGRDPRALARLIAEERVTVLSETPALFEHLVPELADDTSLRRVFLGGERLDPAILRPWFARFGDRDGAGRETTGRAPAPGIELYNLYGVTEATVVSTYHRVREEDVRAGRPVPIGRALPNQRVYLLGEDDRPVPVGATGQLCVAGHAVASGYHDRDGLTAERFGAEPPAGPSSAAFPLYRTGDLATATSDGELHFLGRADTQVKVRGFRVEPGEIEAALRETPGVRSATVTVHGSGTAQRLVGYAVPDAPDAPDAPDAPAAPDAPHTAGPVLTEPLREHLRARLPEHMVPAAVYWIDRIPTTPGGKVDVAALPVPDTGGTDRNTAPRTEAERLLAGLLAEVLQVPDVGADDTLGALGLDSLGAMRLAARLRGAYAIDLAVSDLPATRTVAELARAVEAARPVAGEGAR
T1 sequence (M1F383 entry or part of it S168A): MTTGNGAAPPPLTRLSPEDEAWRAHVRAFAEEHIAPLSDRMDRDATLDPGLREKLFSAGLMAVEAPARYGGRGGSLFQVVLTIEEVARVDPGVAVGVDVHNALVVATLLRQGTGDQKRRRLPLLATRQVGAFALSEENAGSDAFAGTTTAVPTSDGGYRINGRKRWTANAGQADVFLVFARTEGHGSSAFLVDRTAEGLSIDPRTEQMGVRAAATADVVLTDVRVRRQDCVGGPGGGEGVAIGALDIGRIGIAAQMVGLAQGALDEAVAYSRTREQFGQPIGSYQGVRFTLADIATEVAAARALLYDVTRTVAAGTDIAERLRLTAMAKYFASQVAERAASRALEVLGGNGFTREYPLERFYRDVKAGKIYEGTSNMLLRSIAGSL
T2 sequence (M1F383 entry or part of it E372L): as the sequence (M1F383 entry or part of it S168A) above, with A168S, E372L counted along it

Molecule: Cc1cc2nc3c(=O)[nH]c(=O)nc-3n(C[C@H](O)[C@H](O)[C@H](O)COP(=O)(O)OP(=O)(O)OC[C@H]3O[C@@H](n4cnc5c(N)ncnc54)[C@H](O)[C@@H]3O)c2cc1C [FAD]
FAD-binding ability (CaeB1 [1]): the latter variant was nearly colorless, indicating the loss of FAD-binding ability
absorbance spectrum of purified protein (CaeB1 [2]): shares with the wild-type protein a light yellow color and an absorbance spectrum characteristic of FAD
heat denaturation and HPLC-DAD / ESI-HR-MS (ColB1): ColB1, the homolog of trans-acting flavoprotein CaeB1 that also noncovalently binds a FAD cofactor
absorbance spectrum; heat denaturation and HPLC-HR-MS (CaeB1 [3]): Purified CaeB1, which appeared light yellow, was determined to bind oxidized flavin adenine dinucleotide (FAD)

Molecule: CC(C)C[C@H](N)C(=O)O [L-leucine]
HPLC / MS of product 15 (as IAA derivative 17) or 16 (ColA3): incubating CaeA1, CaeA2, and CaeB1 with ColA3 in the presence of the necessary substrates

B1: N-terminally thioredoxin (Trx)-tagged Ct domain of the CaeA2 NRPS module (domain or fragment)
chain: EQEADGTVAPFTPHQAALVAEGAVDWITVEAAASDLDPALAERALREIADRHPALRLRSGTRDDGTPGQYDGGSPGDGLFSEIDLSGLAEDARDDALAEIVAEMSEEVGLAEREPVKLAVVRAGADDVRLLWLAAGAALDDTSWRLLLAEFGRAYQQLAERGSIDWTGMPESVLGWVATQEGAAPPPSVETVAFTGELRTVLDADVTTAFAEATFGAYHLELGEAVAAALTVAARAWPGREPAVTVERSLRTATTDEALGRFTEVTTLDVAAEAVADTLTGVKRAYRDVVRPAPAHPRVHLRDVRSGDWRPTAGPLSPAGLSSPVSTATTPEVLAEVGAAVVGGELVLRWRHTTDAAEATALAEAFTEAVETITEHCRQAGSGSYEPSDFPLAGVDPDELSALLSTLEK
modifications: Trx/6xHis tag omitted; Ct primers not in the excerpt; start placed just after the Carrier feature (2001-2075), in line with the 58 kDa Trx fusion and the 44 kDa difference between CaeA2 and …
Kd (MBP-fused CaeB1 variant): 530 ± 120 nM

Now from value to molecule:

Kd [4]: 1180 nM
Molecule: ColB1 (enzyme)

Kd [5]: 420 nM
B2: MBP-fused CaeB1 variant (enzyme)
chain: T4 sequence (M1F383 1-386)
